According to the OligoGym collection:
HELM strings list units from the 5' end as sugar, base in round brackets, then linkage (d deoxyribose, r ribose, m 2'-O-methyl, p phosphodiester). Strings are as the collection lists them; they lack the last nucleoside at the 3' end of the tested compound. [moe] = 2'-O-(2-methoxyethyl) (MOE); [sp] = phosphorothioate linkage; [m5C] = 5-methylcytosine

Molecular target: SMN2
Test: mouse, dose not given
Details: ASO

Substance | 3 h FOB score
RNA1{[moe](T)[sp].[moe]([m5C])[sp].[moe](A)[sp].[moe]([m5C])[sp].[moe](T)[sp].[moe](T)[sp].[moe](T)[sp].[moe]([m5C])[sp].[moe](A)p.[moe](T)[sp].[moe](A)[sp].[moe](A)[sp].[moe](T)[sp].[moe](G)[sp].[moe]([m5C])p.[moe](T)[sp].[moe](G)}$$$$ (last 3' nucleoside missing) | 3.25 score 0-7
RNA1{[moe](T)[sp].[moe]([m5C])[sp].[moe](A)[sp].[moe]([m5C])[sp].[moe](T)[sp].[moe](T)[sp].[moe](T)[sp].[moe]([m5C])[sp].[moe](A)p.[moe](T)[sp].[moe](A)[sp].[moe](A)[sp].[moe](T)[sp].[moe](G)p.[moe]([m5C])[sp].[moe](T)[sp].[moe](G)}$$$$ (last 3' nucleoside missing) | 3.5 score 0-7
RNA1{[moe](T)[sp].[moe]([m5C])[sp].[moe](A)[sp].[moe]([m5C])[sp].[moe](T)[sp].[moe](T)[sp].[moe](T)[sp].[moe]([m5C])p.[moe](A)[sp].[moe](T)[sp].[moe](A)[sp].[moe](A)[sp].[moe](T)[sp].[moe](G)[sp].[moe]([m5C])[sp].[moe](T)[sp].[moe](G)}$$$$ (last 3' nucleoside missing) | 4.25 score 0-7
RNA1{[moe](T)[sp].[moe]([m5C])[sp].[moe](A)[sp].[moe]([m5C])[sp].[moe](T)[sp].[moe](T)[sp].[moe](T)[sp].[moe]([m5C])p.[moe](A)p.[moe](T)[sp].[moe](A)[sp].[moe](A)[sp].[moe](T)[sp].[moe](G)[sp].[moe]([m5C])[sp].[moe](T)[sp].[moe](G)}$$$$ (last 3' nucleoside missing) | 4 score 0-7
RNA1{[moe](T)[sp].[moe]([m5C])[sp].[moe](A)[sp].[moe]([m5C])[sp].[moe](T)[sp].[moe](T)p.[moe](T)[sp].[moe]([m5C])[sp].[moe](A)[sp].[moe](T)[sp].[moe](A)[sp].[moe](A)[sp].[moe](T)[sp].[moe](G)[sp].[moe]([m5C])[sp].[moe](T)[sp].[moe](G)}$$$$ (last 3' nucleoside missing) | 4 score 0-7
RNA1{[moe](T)[sp].[moe]([m5C])[sp].[moe](A)[sp].[moe]([m5C])p.[moe](T)[sp].[moe](T)[sp].[moe](T)[sp].[moe]([m5C])[sp].[moe](A)[sp].[moe](T)[sp].[moe](A)[sp].[moe](A)[sp].[moe](T)[sp].[moe](G)[sp].[moe]([m5C])[sp].[moe](T)[sp].[moe](G)}$$$$ (last 3' nucleoside missing) | 3.5 score 0-7
RNA1{[moe](T)[sp].[moe]([m5C])p.[moe](A)[sp].[moe]([m5C])[sp].[moe](T)[sp].[moe](T)[sp].[moe](T)[sp].[moe]([m5C])[sp].[moe](A)[sp].[moe](T)[sp].[moe](A)[sp].[moe](A)[sp].[moe](T)[sp].[moe](G)[sp].[moe]([m5C])[sp].[moe](T)[sp].[moe](G)}$$$$ (last 3' nucleoside missing) | 3.25 score 0-7
RNA1{[moe](T)[sp].[moe]([m5C])p.[moe](A)[sp].[moe]([m5C])[sp].[moe](T)[sp].[moe](T)[sp].[moe](T)[sp].[moe]([m5C])[sp].[moe](A)[sp].[moe](T)[sp].[moe](A)[sp].[moe](A)[sp].[moe](T)[sp].[moe](G)[sp].[moe]([m5C])p.[moe](T)[sp].[moe](G)}$$$$ (last 3' nucleoside missing) | 3.5 score 0-7
RNA1{[moe](T)[sp].[moe]([m5C])p.[moe](A)[sp].[moe]([m5C])[sp].[moe](T)[sp].[moe](T)[sp].[moe](T)[sp].[moe]([m5C])[sp].[moe](A)p.[moe](T)[sp].[moe](A)[sp].[moe](A)[sp].[moe](T)[sp].[moe](G)[sp].[moe]([m5C])[sp].[moe](T)[sp].[moe](G)}$$$$ (last 3' nucleoside missing) | 4 score 0-7
RNA1{[moe](T)[sp].[moe]([m5C])p.[moe](A)[sp].[moe]([m5C])p.[moe](T)[sp].[moe](T)[sp].[moe](T)[sp].[moe]([m5C])[sp].[moe](A)[sp].[moe](T)[sp].[moe](A)[sp].[moe](A)[sp].[moe](T)[sp].[moe](G)[sp].[moe]([m5C])[sp].[moe](T)[sp].[moe](G)}$$$$ (last 3' nucleoside missing) | 3.75 score 0-7
RNA1{[moe](T)[sp].[moe]([m5C])p.[moe](A)p.[moe]([m5C])[sp].[moe](T)[sp].[moe](T)[sp].[moe](T)[sp].[moe]([m5C])[sp].[moe](A)[sp].[moe](T)[sp].[moe](A)[sp].[moe](A)[sp].[moe](T)[sp].[moe](G)[sp].[moe]([m5C])[sp].[moe](T)[sp].[moe](G)}$$$$ (last 3' nucleoside missing) | 4.75 score 0-7
RNA1{[moe](T)p.[moe](T)[sp].[moe]([m5C])[sp].[moe](A)[sp].[moe]([m5C])[sp].[moe](T)[sp].[moe](T)[sp].[moe](T)[sp].[moe]([m5C])[sp].[moe](A)[sp].[moe](T)[sp].[moe](A)[sp].[moe](A)[sp].[moe](T)[sp].[moe](G)[sp].[moe]([m5C])[sp].[moe](T)[sp].[moe](G)[sp].[moe](G)}$$$$ (last 3' nucleoside missing) | 3.25 score 0-7
RNA1{[moe](T)p.[moe](T)[sp].[moe]([m5C])[sp].[moe](A)[sp].[moe]([m5C])[sp].[moe](T)[sp].[moe](T)[sp].[moe](T)[sp].[moe]([m5C])[sp].[moe](A)[sp].[moe](T)[sp].[moe](A)[sp].[moe](A)[sp].[moe](T)[sp].[moe](G)[sp].[moe]([m5C])[sp].[moe](T)[sp].[moe](G)}$$$$ (last 3' nucleoside missing) | 4 score 0-7
RNA1{[moe]([m5C])[sp].[moe](A)[sp].[moe]([m5C])[sp].[moe](T)[sp].[moe](T)[sp].[moe](T)[sp].[moe]([m5C])[sp].[moe](A)[sp].[moe](T)[sp].[moe](A)[sp].[moe](A)[sp].[moe](T)[sp].[moe](G)[sp].[moe]([m5C])[sp].[moe](T)[sp].[moe](G)[sp].[moe](G)[sp].[moe]([m5C])[sp].[moe](A)}$$$$ (last 3' nucleoside missing) | 0 score 0-7
RNA1{[moe]([m5C])[sp].[moe](A)[sp].[moe]([m5C])[sp].[moe](T)[sp].[moe](T)[sp].[moe](T)[sp].[moe]([m5C])[sp].[moe](A)[sp].[moe](T)[sp].[moe](A)[sp].[moe](A)[sp].[moe](T)[sp].[moe](G)[sp].[moe]([m5C])[sp].[moe](T)[sp].[moe](G)[sp].[moe](G)[sp].[moe]([m5C])}$$$$ (last 3' nucleoside missing) | 0 score 0-7
RNA1{[moe]([m5C])[sp].[moe](A)[sp].[moe]([m5C])[sp].[moe](T)[sp].[moe](T)[sp].[moe](T)[sp].[moe]([m5C])[sp].[moe](A)[sp].[moe](T)[sp].[moe](A)[sp].[moe](A)[sp].[moe](T)[sp].[moe](G)[sp].[moe]([m5C])[sp].[moe](T)[sp].[moe](G)[sp].[moe](G)}$$$$ (last 3' nucleoside missing) | 2.5 score 0-7
RNA1{[moe]([m5C])[sp].[moe](A)[sp].[moe]([m5C])[sp].[moe](T)[sp].[moe](T)[sp].[moe](T)[sp].[moe]([m5C])[sp].[moe](A)[sp].[moe](T)[sp].[moe](A)[sp].[moe](A)[sp].[moe](T)[sp].[moe](G)[sp].[moe]([m5C])[sp].[moe](T)[sp].[moe](G)}$$$$ (last 3' nucleoside missing) | 3.25 score 0-7
